Patent US8192962B2, “Processes for detecting toxic substances” (Daikin Industries, Ltd., priority 2001, dated 2012)

Test system: Genes belonging to other category
Assay: DNA chip mRNA expression in yeast, genes belonging to other category (Table 9)
Type: cell-based, Saccharomyces cerevisiae S288C
Summary of the method: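 Values are treated/untreated fluorescence ratios from a whole-genome yeast DNA chip hybridized over 12 hours at 65° C with Cy3- or Cy5-labelled cDNA from poly(A) mRNA. Log-phase S288C yeast in YPD at 25° C had received a single toxic chemical for two hours, dosed to slow growth without killing.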

Compound: Oc1cc(Cl)c(Cl)cc1Cl [(6), 2,4,5-trichlorophenol]
- The level of expressed mRNA in the presence of chemical substance/The level of expressed mRNA in the absence of chemical substance (yeast gene YAR010C): 2.3
- The level of expressed mRNA in the presence of chemical substance/The level of expressed mRNA in the absence of chemical substance (yeast gene YBL005W-A): 1.2
- The level of expressed mRNA in the presence of chemical substance/The level of expressed mRNA in the absence of chemical substance (yeast gene YBL041W): 1.7
- The level of expressed mRNA in the presence of chemical substance/The level of expressed mRNA in the absence of chemical substance (yeast gene YBL043W): 26.9
- The level of expressed mRNA in the presence of chemical substance/The level of expressed mRNA in the absence of chemical substance (yeast gene YBL078C): 2.4
- The level of expressed mRNA in the presence of chemical substance/The level of expressed mRNA in the absence of chemical substance (yeast gene YBL101W-A): 1.4
- The level of expressed mRNA in the presence of chemical substance/The level of expressed mRNA in the absence of chemical substance (yeast gene YBR170C): 1.4
- The level of expressed mRNA in the presence of chemical substance/The level of expressed mRNA in the absence of chemical substance (yeast gene YBR173C): 1.3
- The level of expressed mRNA in the presence of chemical substance/The level of expressed mRNA in the absence of chemical substance (yeast gene YBR212W): 1.4
- The level of expressed mRNA in the presence of chemical substance/The level of expressed mRNA in the absence of chemical substance (yeast gene YBR214W): 0.8
- The level of expressed mRNA in the presence of chemical substance/The level of expressed mRNA in the absence of chemical substance (yeast gene YCL020W): 1.0
- The level of expressed mRNA in the presence of chemical substance/The level of expressed mRNA in the absence of chemical substance (yeast gene YCL027W): 1.3
- The level of expressed mRNA in the presence of chemical substance/The level of expressed mRNA in the absence of chemical substance (yeast gene YCR004C): 1.8
- The level of expressed mRNA in the presence of chemical substance/The level of expressed mRNA in the absence of chemical substance (yeast gene YCR069W): 1.4
- The level of expressed mRNA in the presence of chemical substance/The level of expressed mRNA in the absence of chemical substance (yeast gene YCR071C): 2.5
- The level of expressed mRNA in the presence of chemical substance/The level of expressed mRNA in the absence of chemical substance (yeast gene YCR088W): 2.0
- The level of expressed mRNA in the presence of chemical substance/The level of expressed mRNA in the absence of chemical substance (yeast gene YCR106W): 1.4
- The level of expressed mRNA in the presence of chemical substance/The level of expressed mRNA in the absence of chemical substance (yeast gene YDL008W): 2.7
- The level of expressed mRNA in the presence of chemical substance/The level of expressed mRNA in the absence of chemical substance (yeast gene YDL018C): 1.4
- The level of expressed mRNA in the presence of chemical substance/The level of expressed mRNA in the absence of chemical substance (yeast gene YDL143W): 1.0
- The level of expressed mRNA in the presence of chemical substance/The level of expressed mRNA in the absence of chemical substance (yeast gene YDL220C): 1.8
- The level of expressed mRNA in the presence of chemical substance/The level of expressed mRNA in the absence of chemical substance (yeast gene YDL230W): 0.9
- The level of expressed mRNA in the presence of chemical substance/The level of expressed mRNA in the absence of chemical substance (yeast gene YDL238C): 2.1
- The level of expressed mRNA in the presence of chemical substance/The level of expressed mRNA in the absence of chemical substance (yeast gene YDR055W): 3.9
- The level of expressed mRNA in the presence of chemical substance/The level of expressed mRNA in the absence of chemical substance (yeast gene YDR084C): 2.1
- The level of expressed mRNA in the presence of chemical substance/The level of expressed mRNA in the absence of chemical substance (yeast gene YDR085C): 2.1
- The level of expressed mRNA in the presence of chemical substance/The level of expressed mRNA in the absence of chemical substance (yeast gene YDR104C): 1.7
- The level of expressed mRNA in the presence of chemical substance/The level of expressed mRNA in the absence of chemical substance (yeast gene YDR115W): 2.3
- The level of expressed mRNA in the presence of chemical substance/The level of expressed mRNA in the absence of chemical substance (yeast gene YDR212W): 1.4
- The level of expressed mRNA in the presence of chemical substance/The level of expressed mRNA in the absence of chemical substance (yeast gene YDR259C): 0.5
- The level of expressed mRNA in the presence of chemical substance/The level of expressed mRNA in the absence of chemical substance (yeast gene YDR264C): 1.8
- The level of expressed mRNA in the presence of chemical substance/The level of expressed mRNA in the absence of chemical substance (yeast gene YDR315C): 9.4
- The level of expressed mRNA in the presence of chemical substance/The level of expressed mRNA in the absence of chemical substance (yeast gene YDR358W): 2.5
- The level of expressed mRNA in the presence of chemical substance/The level of expressed mRNA in the absence of chemical substance (yeast gene YDR388W): 1.0
- The level of expressed mRNA in the presence of chemical substance/The level of expressed mRNA in the absence of chemical substance (yeast gene YDR403W): 1.1
- The level of expressed mRNA in the presence of chemical substance/The level of expressed mRNA in the absence of chemical substance (yeast gene YDR432W): 0.6
- The level of expressed mRNA in the presence of chemical substance/The level of expressed mRNA in the absence of chemical substance (yeast gene YDR481C): 0.9
- The level of expressed mRNA in the presence of chemical substance/The level of expressed mRNA in the absence of chemical substance (yeast gene YDR510W): 1.0
- The level of expressed mRNA in the presence of chemical substance/The level of expressed mRNA in the absence of chemical substance (yeast gene YEL042W): 0.5
- The level of expressed mRNA in the presence of chemical substance/The level of expressed mRNA in the absence of chemical substance (yeast gene YEL066W): 2.2
- The level of expressed mRNA in the presence of chemical substance/The level of expressed mRNA in the absence of chemical substance (yeast gene YER021W): 1.1
- The level of expressed mRNA in the presence of chemical substance/The level of expressed mRNA in the absence of chemical substance (yeast gene YER039C): 1.6
- The level of expressed mRNA in the presence of chemical substance/The level of expressed mRNA in the absence of chemical substance (yeast gene YER078C): 1.4
- The level of expressed mRNA in the presence of chemical substance/The level of expressed mRNA in the absence of chemical substance (yeast gene YER094C): 1.1
- The level of expressed mRNA in the presence of chemical substance/The level of expressed mRNA in the absence of chemical substance (yeast gene YER107C): 2.5
- The level of expressed mRNA in the presence of chemical substance/The level of expressed mRNA in the absence of chemical substance (yeast gene YER130C): 2.7
- The level of expressed mRNA in the presence of chemical substance/The level of expressed mRNA in the absence of chemical substance (yeast gene YFL022C): 0.9
- The level of expressed mRNA in the presence of chemical substance/The level of expressed mRNA in the absence of chemical substance (yeast gene YFL028C): 1.7
- The level of expressed mRNA in the presence of chemical substance/The level of expressed mRNA in the absence of chemical substance (yeast gene YFL038C): 1.3
- The level of expressed mRNA in the presence of chemical substance/The level of expressed mRNA in the absence of chemical substance (yeast gene YFL043C): 1.8
- The level of expressed mRNA in the presence of chemical substance/The level of expressed mRNA in the absence of chemical substance (yeast gene YFR051C): 0.2
- The level of expressed mRNA in the presence of chemical substance/The level of expressed mRNA in the absence of chemical substance (yeast gene YGL056C): 0.4
- The level of expressed mRNA in the presence of chemical substance/The level of expressed mRNA in the absence of chemical substance (yeast gene YGL093W): 1.0
- The level of expressed mRNA in the presence of chemical substance/The level of expressed mRNA in the absence of chemical substance (yeast gene YGL150C): 1.1
- The level of expressed mRNA in the presence of chemical substance/The level of expressed mRNA in the absence of chemical substance (yeast gene YGL158W): 0.4
- The level of expressed mRNA in the presence of chemical substance/The level of expressed mRNA in the absence of chemical substance (yeast gene YGL166W): 1.0
- The level of expressed mRNA in the presence of chemical substance/The level of expressed mRNA in the absence of chemical substance (yeast gene YGL229C): 2.2
- The level of expressed mRNA in the presence of chemical substance/The level of expressed mRNA in the absence of chemical substance (yeast gene YGR136W): 1.1
- The level of expressed mRNA in the presence of chemical substance/The level of expressed mRNA in the absence of chemical substance (yeast gene YGR189C): 0.5
- The level of expressed mRNA in the presence of chemical substance/The level of expressed mRNA in the absence of chemical substance (yeast gene YGR213C): 4.1
- The level of expressed mRNA in the presence of chemical substance/The level of expressed mRNA in the absence of chemical substance (yeast gene YGR253C): 1.4
- The level of expressed mRNA in the presence of chemical substance/The level of expressed mRNA in the absence of chemical substance (yeast gene YGR257C): 2.1
- The level of expressed mRNA in the presence of chemical substance/The level of expressed mRNA in the absence of chemical substance (yeast gene YHR004C): 2.0
- The level of expressed mRNA in the presence of chemical substance/The level of expressed mRNA in the absence of chemical substance (yeast gene YHR027C): 0.4
- The level of expressed mRNA in the presence of chemical substance/The level of expressed mRNA in the absence of chemical substance (yeast gene YHR028C): 0.9
- The level of expressed mRNA in the presence of chemical substance/The level of expressed mRNA in the absence of chemical substance (yeast gene YHR071W): 2.0
- The level of expressed mRNA in the presence of chemical substance/The level of expressed mRNA in the absence of chemical substance (yeast gene YHR082C): 0.8
- The level of expressed mRNA in the presence of chemical substance/The level of expressed mRNA in the absence of chemical substance (yeast gene YHR136C): 1.4
- The level of expressed mRNA in the presence of chemical substance/The level of expressed mRNA in the absence of chemical substance (yeast gene YHR139C): 1.9
- The level of expressed mRNA in the presence of chemical substance/The level of expressed mRNA in the absence of chemical substance (yeast gene YHR142W): 1.2
- The level of expressed mRNA in the presence of chemical substance/The level of expressed mRNA in the absence of chemical substance (yeast gene YHR160C): 1.0
- The level of expressed mRNA in the presence of chemical substance/The level of expressed mRNA in the absence of chemical substance (yeast gene YHR166C): 1.8
- The level of expressed mRNA in the presence of chemical substance/The level of expressed mRNA in the absence of chemical substance (yeast gene YHR205W): 1.0
- The level of expressed mRNA in the presence of chemical substance/The level of expressed mRNA in the absence of chemical substance (yeast gene YIL015W): 0.4
- The level of expressed mRNA in the presence of chemical substance/The level of expressed mRNA in the absence of chemical substance (yeast gene YIL075C): 0.8
- The level of expressed mRNA in the presence of chemical substance/The level of expressed mRNA in the absence of chemical substance (yeast gene YIL123W): 0.5
- The level of expressed mRNA in the presence of chemical substance/The level of expressed mRNA in the absence of chemical substance (yeast gene YIL129C): 0.3
- The level of expressed mRNA in the presence of chemical substance/The level of expressed mRNA in the absence of chemical substance (yeast gene YIL140W): 0.5
- The level of expressed mRNA in the presence of chemical substance/The level of expressed mRNA in the absence of chemical substance (yeast gene YIL142W): 1.1
- The level of expressed mRNA in the presence of chemical substance/The level of expressed mRNA in the absence of chemical substance (yeast gene YIR009W): 1.4
- The level of expressed mRNA in the presence of chemical substance/The level of expressed mRNA in the absence of chemical substance (yeast gene YJL073W): 2.0
- The level of expressed mRNA in the presence of chemical substance/The level of expressed mRNA in the absence of chemical substance (yeast gene YJL089W): 1.6
- The level of expressed mRNA in the presence of chemical substance/The level of expressed mRNA in the absence of chemical substance (yeast gene YJL116C): 3.4
